This note sets out measurements from US20220378954A1, “METHODS FOR RADIOLABELLING GRPR ANTAGONISTS AND THEIR KITS” (NOVARTIS AG, priority 2019, published 2022).

“And” between values parts separate entries of the source, which are not always exact repeats. Identical values can stand only once.

The series in a line: Peptide adhesion tests (non-specific binding of NeoB to glass and plastic surfaces). It counts as physicochemical. The note with it: final formulation: NeoB 50 μg, Mannitol 20 mg, Kolliphor HS15 500 μg, Gentisic acid 200 μg; three independent radiolabelling tests; adhesion to the glass.

Take `CC(C)CC(CC(C)C)NC(=O)[C@H](Cc1cnc[nH]1)NC(=O)CNC(=O)[C@@H](NC(=O)[C@H](C)NC(=O)[C@H](Cc1c[nH]c2ccccc12)NC(=O)[C@H](CCC(N)=O)NC(=O)[C@@H](Cc1ccccc1)NC(=O)COCC(=O)Nc1ccc(CNC(=O)CN2CCN(CC(=O)O)CCN(CC(=O)O)CCN(CC(=O)O)CC2)cc1)C(C)C` [NeoB]: the “Peptide Adhesion (%)” value is 4.8% and 5.0% and 5.8%.
